# Laboratory results reported in a melting point compilation (Tetko et al.).
row,melting point [°C],Structure (SMILES)
1,111 to 113,O=c1[nH]nc(-c2ccco2)o1
2,33 to 37,CCOc1ccc(C(C)=O)cc1CN1CCCCC1
3,233 to 235,CN1CC(=O)Nc2ccc(Cl)nc21
4,160 to 162,O=C(O)CCn1c(=O)oc2cc(Cl)ccc21
5,88 to 90,O=C(O)CN1C(=O)C2CCCCC2C1=O (stereo unspecified)
6,117 to 119,Nc1ccccc1N1CCC(O)CC1
7,100 to 102,O=C(O)CCN1C(=O)NC2(CCCCC2)C1=O
8,68 to 70,Clc1cnc2nc(Cl)oc2c1
9,101 to 103,Cn1cc(CN=[N+]=[N-])c(-c2ccc(C#N)cc2)n1
10,104 to 106,COc1cccc(Cc2nnc(N)s2)c1
11,226 to 228,O=C1Cc2cc3c(cc2CCN1)OCCO3
12,205 to 208,COc1ccc(N2C(=O)CCC(C(=O)O)C2c2ccccc2OC)cc1 (stereo unspecified)
13,172 to 174,Cc1nc(S)c2c(=O)n(C)c(=O)n(CC(C)C)c2n1
14,146 to 148,CC(C)c1c(C(=O)O)nnn1-c1ccc(F)cc1
15,49 to 51,CCn1c(C=O)nc2ccccc21
16,186 to 188,Oc1ccc(-c2nc3ccccc3s2)cc1Cl
17,221 to 224,O=C(O)c1ccc(Cl)c(S(=O)(=O)NC2CC2)c1
18,228 to 230,O=C(O)c1ccc(-c2cccs2)cc1F
19,157 to 159,Cc1ccc(CNC(=O)C2CCNCC2)cc1
20,306 to 308,O=C(O)c1cccc(NC(=O)c2ccc(Br)cc2)c1
21,113 to 115,CN(CC(=O)NC1CC1)C(=O)CCl
22,96 to 98,O=C(O)C1CC1c1ccc(OC(F)(F)F)cc1 (stereo unspecified)
23,156 to 158,O=C(O)c1ccc(OCC2CC2)nc1
24,106 to 108,O=C1c2ccncc2C(=O)N1CCO
25,112 to 114,CC(C)NS(=O)(=O)c1ccc(N)cc1

row,melting point [°C],Structure (SMILES)
1,87 to 89,OCc1cn(-c2ccccc2Cl)nn1
2,79 to 81,CCOc1cc(CC#N)cc(Cl)c1OC(F)F
3,169 to 171,O=C(O)C(=O)NNc1ccc(Cl)cc1Cl
4,97 to 99,O=S(=O)(NC1CCCC1)c1ccc(Cl)nc1
5,294 to 296,Cc1nc(S)c(C(N)=O)c(C)c1C
6,67 to 69,CC(C)c1ccc(C2CC2C(=O)O)cc1 (stereo unspecified)
7,178 to 180,Cc1cc(Nc2nc3ccccc3nc2Cl)n(-c2ccccc2)n1
8,103 to 105,CC(C)(CO)Nc1ccc(Br)cn1
9,130 to 132,N#CC1(NC(=O)c2ccccc2)CCCC1
10,148 to 149,CS(=O)(=O)c1ccc(Cl)c(NC(=O)CCl)c1
11,226 to 228,NC(=O)CCc1ccc(C(=O)O)cc1
12,131 to 133,COc1ccc(C)cc1CC(=O)O
13,132 to 134,O=C(O)c1ccc2cccnn12
14,139 to 141,O=C(O)CCc1cn(Cc2ccc(Cl)cc2)c2ccccc12
15,190 to 192,COc1cccc(CNc2ccc3[nH]c(=O)[nH]c3c2)c1
16,116 to 118,O=C(O)CCCOc1cccc2ccccc12
17,181 to 183,NC(=O)c1c(NC(=O)CCl)sc2c1CCC2
18,219 to 221,CC(C)C1OC(N)=NC1=O (stereo unspecified)
19,94 to 96,O=S(=O)(NC1CC1)c1ccc(Cl)nc1
20,241 to 243,Cc1ccc(-n2nc(C)c(C(=O)O)c2Cl)cc1Cl
21,151 to 153,COc1cccc(NC(=O)C=CC(=O)O)c1
22,129 to 131,CC(C)(C)Sc1ccc(C(N)=S)nc1
23,61 to 63,O=[N+]([O-])c1cc(S(=O)(=O)N2CCCCC2)ccc1Cl
24,115 to 117,Fc1ccc(NC2CCOCC2)nc1
25,99 to 101,N#CCc1ccc(OCc2ccc(Cl)nc2)cc1

row,melting point [°C],Structure (SMILES)
1,99 to 101,CCOC(=O)C1=C(C)NN=C(C)C1
2,227 to 229,CCn1c(S)nc2cc(S(=O)(=O)N3CCOCC3)ccc21
3,176 to 178,Cc1nn(C)c2ncc(C#N)cc12
4,89 to 91,O=[N+]([O-])c1cccc(F)c1S(=O)(=O)Cl
5,101 to 103,Cc1cc(C(=O)N2CCOCC2)ccc1N
6,97 to 99,Nc1ncc(Cc2ccccc2Cl)s1
7,59 to 61,N#CCOc1cc(F)ccc1N
8,79 to 81,COc1cc(Br)c(F)cc1S(=O)(=O)Cl
9,250 to 252,O=C(O)c1ccc(Nc2ccccc2)c([N+](=O)[O-])c1
10,47 to 49,CC(C)(C)OC(=O)NCC(N)C1CCCCC1 (stereo unspecified)
11,104 to 106,N#Cc1cccc(NN)c1
12,92 to 94,Cc1ccc(-c2nc(C=O)co2)cc1
13,159 to 162,Cc1csc(SCc2ccccc2C(=O)O)n1
14,55 to 57,CCc1cc2c(Cl)ncnc2s1
15,154 to 156,Cc1oc(C(=O)O)cc1Cn1cc(Br)cn1
16,77 to 79,Cc1nc(Cl)c(Cl)nc1C
17,214 to 216,Nc1c(F)cc(Br)cc1C(=O)O
18,144 to 146,CSc1cc(C(=O)O)oc1C
19,165 to 167,O=C(O)CN1C(=O)NC2(CCCC2)C1=O
20,254 to 256,Cc1c(C(=O)O)c(O)nc2ccccc12
21,72 to 74,Cc1cc(-c2csc(N)n2)c(C)s1
22,49 to 51,O=Cc1ccn(-c2ccccc2)n1
23,158 to 160,O=C(O)c1nc(NCCc2ccccc2)ncc1Cl
24,207 to 209,O=C(O)CNC(=O)c1cc2c(s1)CCC2
25,92 to 94,Cc1nn(-c2ccccc2)c(Oc2ccccc2)c1C=O

row,melting point [°C],Structure (SMILES)
1,58 to 60,Cc1cc(N)nn1-c1cccc(Cl)c1
2,113 to 115,COc1ccc(OC)c(-c2csc(N)n2)c1
3,244 to 246,Cn1nc(C(=O)O)c(=O)c2ccccc21
4,254 to 256,Nc1ccnc2ccncc12
5,131 to 133,CC(C)(C)OC(=O)Nc1ccc(F)cc1N
6,39 to 41,COc1cc(C)c(N)cc1OC
7,90 to 92,COCCn1c(N)cc(=O)[nH]c1=O
8,94 to 95,CCOc1ccc(NS(=O)(=O)c2ccc(OC)c(N)c2)cc1
9,120 to 122,CC(=O)N1CCC(NC(=O)CCl)CC1
10,207 to 209,NCCCc1nc(C2CC2)n[nH]1
11,115 to 117,COC(=O)C[C@H](NC(=O)OCC1c2ccccc2-c2ccccc21)C(=O)O
12,261 to 263,O=C(O)CNC(=O)c1ccc(C(=O)NCC(=O)O)cc1
13,249 to 251,Sc1nnc(-c2cc3ccccc3o2)o1
14,199 to 201,O=C(O)c1ccc(S(=O)(=O)C2CCCC2)cc1
15,82 to 84,COc1ccc2c(c1)OCC(C=O)=C2
16,129 to 131,Nc1[nH]ncc1-c1ccccc1Br
17,129 to 131,CC(Oc1ccc(C#N)cc1)C(=O)NN (stereo unspecified)
18,177 to 179,Cc1ccc(NC2C=CS(=O)(=O)C2)cc1C (stereo unspecified)
19,67 to 69,N#Cc1ccc(S(=O)(=O)Cl)cn1
20,72 to 74,CC(C)c1cccc(C(C)C)c1NCCO
21,192 to 194,Cc1ccc(-n2c(S)nc3ccccc32)c(C)c1
22,110 to 112,Cc1ccc(C(NC(=O)CCl)c2cccs2)cc1 (stereo unspecified)
23,282 to 284,N#CCc1nc2cc(Cl)ccc2c(=O)[nH]1
24,217 to 219,CCc1cc(=O)[nH]c(-c2ccnc(Cl)c2)n1

row,Structure (SMILES),melting point [°C]
1,Nc1ccc(CN2CCN(Cc3ccccc3)CC2)cc1,96 to 98
2,N#CSc1ccc(N)cc1,43 to 56
